US9540323B2 (BRISTOL-MYERS SQUIBB COMPANY, priority 2012, dated 2017)

What was measured:
[1] = tested on: human platelet rich plasma (PRP); experiment: ADP induced platelet aggregation assay; settings: Homo sapiens, Platelet, 5 min, read-out: PA IC50 (μM) @ 10 μM ADP, human PRP, 10 μM ADP, AUC at 5 minute
[2] = biological target: cloned human P2Y1 receptors (Homo sapiens (Human), UniProt P47900); experiment: Binding Assay B - Scintillation Proximity Assay (SPA) for P2Y1 binding, [33P] 2MeS-ADP; settings: SPA, 0.3 nM [33P] 2MeS-ADP, Cheng-Prusoff; read-out: P2Y1 Ki (nM) using binding assay B
cloned human P2Y1 receptors, sequence (P47900 whole entry): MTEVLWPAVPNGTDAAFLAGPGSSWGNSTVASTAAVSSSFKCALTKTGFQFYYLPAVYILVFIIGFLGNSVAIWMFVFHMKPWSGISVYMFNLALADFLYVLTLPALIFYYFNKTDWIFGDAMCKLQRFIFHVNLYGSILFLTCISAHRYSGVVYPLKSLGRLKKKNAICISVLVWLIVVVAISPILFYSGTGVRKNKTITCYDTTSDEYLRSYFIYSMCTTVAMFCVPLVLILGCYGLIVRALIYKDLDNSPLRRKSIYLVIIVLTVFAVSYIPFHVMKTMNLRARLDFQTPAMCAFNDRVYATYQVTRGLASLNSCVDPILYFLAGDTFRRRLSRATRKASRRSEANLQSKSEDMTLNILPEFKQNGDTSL
Description: Binding Assay B—Scintillation Proximity Assay (SPA) for P2Y1 Binding
A SPA membrane binding assay was used to identify inhibitors of [^33P] […] Reactions were allowed to proceed to completion at room temperature for 1 hour followed by centrifugation of the plate for 5 min. About 40 μL of the aqueous solution was aspirated. Plates were sealed and the [^33P]

Q: Which results are given for `CC1(C)CN(c2ccccc2NC(=O)Nc2ccc(OC(F)(F)F)cc2)c2c(O)ccc(-c3nc4cc(Cl)ccc4o3)c21` [Example 84, 1-(2-(4-(5-Chlorobenzo[d]oxazol-2-yl)-7-hydroxy-3,3-dimethylindolin-1-yl)phenyl)-3-(4-(trifluoromethoxy)phenyl)urea]?
A: IC50 [1]: 0.58 µM; Ki [2]: 16.7 nM

Q: With `CC1(C)CN(c2ccccc2NC(=O)Nc2ccc(OC(F)(F)F)cc2)c2c(O)ccc(-c3nc4cc(Cl)ccc4s3)c21` [Example 85, 1-(2-(4-(5-Chlorobenzo[d]thiazol-2-yl)-7-hydroxy-3,3-dimethylindolin-1-yl)phenyl)-3-(4-(trifluoromethoxy)phenyl)urea] as the compound, how does the IC50 [1] read?
A: 0.38 µM

Q: And the Ki [2]?
A: 23.5 nM

Q: For `Cc1nnc(-c2ccc(O)c3c2C(C)(C)CN3c2ccccc2NC(=O)Nc2ccc(OC(F)(F)F)cc2)o1` [Example 86, 1-(2-(7-Hydroxy-3,3-dimethyl-4-(5-methyl-1,3,4-oxadiazol-2-yl)indolin-1-yl)phenyl)-3-(4-(trifluoromethoxy)phenyl)urea], which IC50 [1] is on record?
A: 5 µM

Q: And the Ki [2]?
A: 22.2 nM

Q: `CC1(C)CN(c2ccccc2NC(=O)Nc2ccc(OC(F)(F)F)cc2)c2c(O)ccc(-c3nc4cc(C(F)(F)F)ccc4s3)c21` [Example 87] was tested. Which IC50 [1] did it give?
A: 0.27 µM

Q: What about the Ki [2] of the same compound?
A: 42.9 nM

Q: `Cn1c(-c2ccc(O)c3c2C(C)(C)CN3c2ccccc2NC(=O)Nc2ccc(OC(F)(F)F)cc2)nc2ccccc21` [Example 88, 1-(2-(7-Hydroxy-3,3-dimethyl-4-(1-methyl-1H-benzo[d]imidazol-2-yl)indolin-1-yl)phenyl)-3-(4-(trifluoromethoxy)phenyl)urea] was tested. Which IC50 [1] did it give?
A: 4.15 µM

Q: What about the Ki [2] of the same compound?
A: 39.7 nM

Q: Which IC50 [1] does the source give for `CC1(C)CN(c2ccccc2NC(=O)Nc2ccc(OC(F)(F)F)cc2)c2c(O)ccc(-c3nc4cccnc4o3)c21` [Example 89, 1-(2-(7-Hydroxy-3,3-dimethyl-4-(oxazolo[5,4-b]pyridin-2-yl)indolin-1-yl)phenyl)-3-(4-(trifluoromethoxy)phenyl)urea] here?
A: 0.99 µM

Q: What about the Ki [2] of the same compound?
A: 12.3 nM

Q: Which IC50 [1] does the source give for `Cc1cccc2oc(-c3ccc(O)c4c3C(C)(C)CN4c3ccccc3NC(=O)Nc3ccc(OC(F)(F)F)cc3)nc12` [Example 90, 1-(2-(7-Hydroxy-3,3-dimethyl-4-(4-methylbenzo[d]oxazol-2-yl)indolin-1-yl)phenyl)-3-(4-(trifluoromethoxy)phenyl)urea] here?
A: 0.43 µM

Q: What about the Ki [2] of the same compound?
A: 56.7 nM

Q: Which IC50 [1] does the source give for `CC1(C)CN(c2ccccc2NC(=O)Nc2ccc(OC(F)(F)F)cc2)c2c(O)ccc(-c3nc4ccc(Cl)cc4o3)c21` [Example 91, 1-(2-(4-(6-Chlorobenzo[d]oxazol-2-yl)-7-hydroxy-3,3-dimethylindolin-1-yl)phenyl)-3-(4-(trifluoromethoxy)phenyl)urea] here?
A: 0.33 µM

Q: And the Ki [2]?
A: 65.1 nM

Q: How did the IC50 [1] turn out when `CC1(C)CN(c2ccccc2NC(=O)Nc2ccc(OC(F)(F)F)cc2)c2c(O)ccc(-c3nc4ccc(F)cc4o3)c21` [Example 92, 1-(2-(4-(6-Fluorobenzo[d]oxazol-2-yl)-7-hydroxy-3,3-dimethylindolin-1-yl)phenyl)-3-(4-(trifluoromethoxy)phenyl)urea] was run?
A: 0.2 µM

Q: What about the Ki [2] of the same compound?
A: 36.6 nM

Q: How did the IC50 [1] turn out when `Cc1cccc2nc(-c3ccc(O)c4c3C(C)(C)CN4c3ccccc3NC(=O)Nc3ccc(OC(F)(F)F)cc3)oc12` [Example 93, 1-(2-(7-Hydroxy-3,3-dimethyl-4-(7-methylbenzo[d]oxazol-2-yl)indolin-1-yl)phenyl)-3-(4-(trifluoromethoxy)phenyl)urea] was run?
A: 0.8 µM

Q: What about the Ki [2] of the same compound?
A: 52 nM

Q: What does the source list for `COc1ccc2nc(-c3ccc(O)c4c3C(C)(C)CN4c3ccccc3NC(=O)Nc3ccc(OC(F)(F)F)cc3)oc2c1` [Example 94, 1-(2-(7-Hydroxy-4-(6-methoxybenzo[d]oxazol-2-yl)-3,3-dimethylindolin-1-yl)phenyl)-3-(4-(trifluoromethoxy)phenyl)urea]?
A: IC50 [1]: 0.48 µM; Ki [2]: 39.5 nM

Q: What does the source list for `Cc1ccc2nc(-c3ccc(O)c4c3C(C)(C)CN4c3ccccc3NC(=O)Nc3ccc(OC(F)(F)F)cc3)oc2c1` [Example 95, 1-(2-(7-Hydroxy-3,3-dimethyl-4-(6-methylbenzo[d]oxazol-2-yl)indolin-1-yl)phenyl)-3-(4-(trifluoromethoxy)phenyl)-urea]?
A: IC50 [1]: 0.46 µM; Ki [2]: 33.3 nM

Q: For `CC1(C)CN(c2ccccc2NC(=O)Nc2ccc(OC(F)(F)F)cc2)c2c(O)ccc(-c3nc4cnccc4o3)c21` [Example 96, 1-(2-(7-Hydroxy-3,3-dimethyl-4-(oxazolo[4,5-c]pyridin-2-yl)indolin-1-yl)phenyl)-3-(4-(trifluoromethoxy)phenyl)urea], which IC50 [1] is on record?
A: 2.99 µM

Q: What about the Ki [2] of the same compound?
A: 22.2 nM

Q: With `Cc1noc(-c2ccc(O)c3c2C(C)(C)CN3c2ccccc2NC(=O)Nc2ccc(OC(F)(F)F)cc2)n1` [Example 97, 1-(2-(7-Hydroxy-3,3-dimethyl-4-(3-methyl-1,2,4-oxadiazol-5-yl)indolin-1-yl)phenyl)-3-(4-(trifluoromethoxy)phenyl)urea] as the compound, how does the IC50 [1] read?
A: 1.52 µM

Q: And the Ki [2]?
A: 20.7 nM

Q: How did the IC50 [1] turn out when `CC1(C)CN(c2ccccc2NC(=O)Nc2ccc(OC(F)(F)F)cc2)c2c(O)ccc(-c3nc4cc(F)c(F)cc4o3)c21` [Example 99, 1-(2-(4-(5,6-Difluorobenzo[d]oxazol-2-yl)-7-hydroxy-3,3-dimethylindolin-1-yl)phenyl)-3-(4-(trifluoromethoxy)phenyl)urea] was run?
A: 0.89 µM

Q: What about the Ki [2] of the same compound?
A: 28.1 nM

Q: `CC1(C)CN(c2ccccc2NC(=O)Nc2nc3ccc(F)cc3s2)c2c(O)ccc(-c3nc4cc(Cl)ccc4s3)c21` [Example 100, 1-(2-(4-(5-Chlorobenzo[d]thiazol-2-yl)-7-hydroxy-3,3-dimethylindolin-1-yl)phenyl)-3-(6-fluorobenzo[d]thiazol-2-yl)urea] was tested. Which IC50 [1] did it give?
A: 0.27 µM

Q: And the Ki [2]?
A: 38.4 nM

Q: How did the IC50 [1] turn out when `CC1(C)CN(c2ccccc2NC(=O)Nc2nc3ccc(F)cc3s2)c2c(O)ccc(-c3nc4ccc(F)cc4o3)c21` [Example 101, 1-(2-(4-(6-Fluorobenzo[d]oxazol-2-yl)-7-hydroxy-3,3-dimethylindolin-1-yl)phenyl)-3-(6-fluorobenzo[d]thiazol-2-yl)urea] was run?
A: 0.67 µM

Q: What about the Ki [2] of the same compound?
A: 31.9 nM

Q: `Cc1cnc2oc(-c3ccc(O)c4c3C(C)(C)CN4c3ccccc3NC(=O)Nc3ccc(OC(F)(F)F)cc3)nc2c1` [Example 102, 1-(2-(7-Hydroxy-3,3-dimethyl-4-(6-methyloxazolo[5,4-b]pyridin-2-yl)indolin-1-yl)phenyl)-3-(4-(trifluoromethoxy)phenyl)urea] was tested. Which IC50 [1] did it give?
A: 0.97 µM

Q: What about the Ki [2] of the same compound?
A: 11.2 nM

Q: How did the IC50 [1] turn out when `Cc1ccnc2oc(-c3ccc(O)c4c3C(C)(C)CN4c3ccccc3NC(=O)Nc3ccc(OC(F)(F)F)cc3)nc12` [Example 103, 1-(2-(7-Hydroxy-3,3-dimethyl-4-(7-methyloxazolo[5,4-b]pyridin-2-yl)indolin-1-yl)phenyl)-3-(4-(trifluoromethoxy)phenyl)urea] was run?
A: 1.03 µM

Q: And the Ki [2]?
A: 11.1 nM

Q: What does the source list for `CC1(C)CN(c2ccccc2NC(=O)Nc2ccc(OC(F)(F)F)cc2)c2c(O)ccc(C3=NC(C(C)(C)C)CO3)c21` (stereo not drawn) [Example 104, 1-(2-(4-(4-tert-Butyl-4,5-dihydrooxazol-2-yl)-7-hydroxy-3,3-dimethylindolin-1-yl)phenyl)-3-(4-(trifluoromethoxy)phenyl)urea]?
A: IC50 [1]: 0.46 µM; Ki [2]: 9.1 nM

Q: With `CC1(C)CN(c2ccccc2NC(=O)Nc2ccc(OC(F)(F)F)cc2)c2c(O)ccc(C3=NCC(C(F)(F)F)O3)c21` (stereo not drawn) [Example 105, 1-(2-(7-Hydroxy-3,3-dimethyl-4-(5-(trifluoromethyl)-4,5-dihydrooxazol-2-yl)indolin-1-yl)phenyl)-3-(4-(trifluoromethoxy)phenyl)urea] as the compound, how does the IC50 [1] read?
A: 1.57 µM

Q: What about the Ki [2] of the same compound?
A: 8.8 nM
